Experimental data reported in PMC11345829, “Discovery of Potent Isoquinolinequinone N-Oxides to Overcome Cancer Multidrug Resistance” (Journal of Medicinal Chemistry, 2024).

Tests used:
NCI-H460 cells [1] = test: ROS accumulation, CM-H2DCFDA flow cytometry; format: cell-based, human; settings: 6 h; 0.7, 1 and 5 μM; concentration dependent
Excerpt: To uncover the mechanisms of action of 25, we analyzed the cellular accumulation of ROS by flow cytometry, using a fluorescent marker of ROS, 5-(and-6)-chloromethyl-2′,7′-dichlorodihydrofluorescein diacetate acetyl ester (CM-H2DCFDA). […] Importantly, this effect was concentration dependent.
Figure 6 Effect of the compound 25 on ROS accumulation in NCI-H460 cells. […] Results are presented as mean fluorescence values, normalized to the blank. Data are expressed as mean ± SEM from at least 3 independent experiments.
To study the effect of compound 25 on ROS levels, 5-(and-6)-chloromethyl-2′,7′-dichlorodihydrofluorescein diacetate, acetyl ester (CM-H2DCFDA; Invitrogen) analysis by flow cytometry was performed in the drug-sensitive cells. NCI-H460 cells (1.5 × 10^5/mL) were plated in 6-well plates for 24 h. […] Harvested cells were subsequently washed twice in phosphate-buffered saline (PBS) and the CM-H2DCFDA fluorescence was analyzed in a BD AccuriTM flow cytometer (BD Biosciences, San Jose, California, USA). Mean fluorescence intensity was calculated after correction for autofluorescence.

NCI-H460 cells [2] = test: Annexin V-FITC/PI cell death assay; format: cell-based, human; settings: 48 h; 0.35 and 0.7 μM
Method: The effect of compound 25 on the levels of apoptosis and necrosis was evaluated using annexin V-FITC/PI labeling followed by flow cytometry analysis.
Figure 9 Effect of compound 25 on the levels of death of NCI-H460 cells, analyzed by flow cytometry (annexin V−PI assay). […] Results are the mean ± SEM from at least 3 independent experiments. * p ≤ 0.05, when comparing DMSO vs compound treatment.
Analysis of cell death was performed using the Annexin V-FITC apoptosis detection kit (eBioscience, Thermo Fisher Scientific). […] Exposure to 5% ethanol for 1 h was used as a positive control for necrosis. Collected cells were resuspended in the binding buffer solution and incubated with the Annexin V-FITC conjugate for 10 min at RT, in the dark. Afterward, PI was added, and samples were analyzed using the BD Accuri C6 flow cytometer, where at least 10 000 events per sample were plotted. Data analysis was carried out using the BD Accuri C6 Software.

NCI-H322 = test: SRB cell growth inhibition assay; format: cell-based; settings: Homo sapiens, 48 h, NSCLC, read-out: GI50 ± SEM NCI-H322
Method: (§1) Two pairs of drug-sensitive and multidrug-resistant (MDR) cell lines from human nonsmall cell lung cancer (NSCLC), NCI-H460 and NCI-H460/R, and colorectal cancer, DLD1 and DLD1-TxR, kindly provided by Dr M. Pešić (Belgrade, Serbia), were used to evaluate the growth inhibition potential of the compounds 1, 2, 3, 4, 5, 20, 23, 24, an 25.[76],[77] Additionally, growth inhibition assays were performed with compound 25 on two other NSCLC cell lines, A549 and NCI-H322, obtained from the American Type Culture Collection (ATCC) and the European Collection of Authenticated Cell Cultures, respectively. The A549 cell line was maintained in Dulbecco’s Modified Eagle Medium (DMEM) supplemented with 4.5 g/L Glucose with UltraGlutamine with sodium pyruvate (Lonza, Basel Stücki, Switzerland), enriched with 10% fetal bovine serum (FBS; Biowest, Nuaillé, France). […]
(§2) Cells were seeded at a previously determined optimal cell concentration (5.0 × 10^4 cells/mL for NSCLC cells and the nontumorigenic MRC-5 cell line and 1.0 × 10^5 cells/mL for colorectal cancer cells) and incubated at 37 °C for 24 h. […] Absorbance was measured at 510 nm in a multiplate reader (Synergy Mx, Biotek Instruments Inc., Winooski, Vermont, USA) using the Gen5 software (Biotek Instruments Inc.).

A549 = test: SRB cell growth inhibition assay; format: cell-based; settings: Homo sapiens, 48 h, NSCLC, read-out: GI50 ± SEM A549
Method: as §1, §2

NCI-H460 cells [3] = test: Trypan blue exclusion assay; format: cell-based, human; settings: 48 h; GI50 (0.35 μM) and 2 × GI50 (0.7 μM)
Method: After this treatment, cells were mixed with 0.2% (v/v) trypan blue dye (Merck LifeScience) and counted on an hemocytometer (Neubauer Chamber).
S3.4 Effect of 25 on the viable cell number of NCI-H460 cells (Figure S65)
Figure S65 Effect of 25 on the viable cell number of NCI-H460 cells, determined with the Trypan blue exclusion assay. Cells were incubated for 48 h with medium, DMSO (vehicle 1: % of vehicle used at the GI50 concentration of compound; vehicle 2: % of vehicle used at the 2GI50 concentration of compound), […]
compound 25. Results are the mean ± SEM from at least three independent experiments. # p ≤ 0.05 and **** p ≤ 0.0001, when comparing DMSO vs. compound treatment.
(1 picture or pasted object on this page, not shown here)

NCI-H460 cells [4] = test system: NCI-H460 cells; set-up: method as in PMID 34915071; settings: cited from earlier work

| Compound | ROS accumulation (fluorescence intensity) (NCI-H460 cells [1]) | percentage of dead cells (apoptosis/necrosis) (NCI-H460 cells [2]) | GI50 (NCI-H322) [nM] | GI50 (A549) [nM] | percentage of viable cells (NCI-H460 cells [3]) | concentration reducing viability of NCI-H460 cells in 2D models (NCI-H460 cells [4]) [µM] |
| --- | --- | --- | --- | --- | --- | --- |
| COC(=O)c1c2c(c[n+]([O-])c1C)C(=O)C=C(NCc1ccccc1)C2=O [Compound 25] | statistically significant increase on fluorescence intensity | did not cause an increase in the percentage of dead cells | 450 ± 60 | 220 ± 20 | significant decrease in the percentage of viable cells |  |
| COc1cccc2c1C(=O)c1c(O)c3c(c(O)c1C2=O)C[C@@](O)(C(=O)CO)C[C@@H]3O[C@H]1C[C@H](N)[C@H](O)[C@H](C)O1 [doxorubicin, reference compound] |  |  |  |  |  | 0.1 |
